Measurements as given in ChEMBL document CHEMBL1201862, “PubChem BioAssay data set” (2004).
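Cultured in 96-well plates, cells were exposed to test compound for 48 hours across five concentrations. Here, GI50 denotes the concentration required for 50% inhibition of growth.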 Active and inactive are the calls of the source. No stated cut-off is given here; in the data, active = GI50 up to about 1.1 µM and inactive = higher.

Tests used:
Test in all cases: inhibition of tumour cell growth, NCI panel, 48 h
[1] = tested on: DLD-1
[2] = tested on: DMS-114
[3] = tested on: DMS-273
[4] = tested on: KM-20L2
[5] = tested on: M19-MEL
[6] = tested on: RXF 631
[7] = tested on: XF498

Measured: GI50

C[N+](C)(C)CC1CCCC(C[N+](C)(C)C)C1O (configuration not stated)
inactive: [1] > 100 µM | [2] > 100 µM | [3] > 100 µM | [4] > 100 µM | [5] > 100 µM | [6] > 100 µM

C#CC1(O)CCC2[C@@H]3CCc4cc(Oc5nc(F)nc(-c6c7ccccc7c(SCC)n6CCC)n5)ccc4C3CC[C@@]21C (some centres not stated)
inactive: [1] > 100 µM | [2] 31.3 µM | [3] > 100 µM | [4] > 100 µM | [5] > 100 µM | [6] > 100 µM | [7] > 100 µM

CN1C(c2ccccc2)CC(=NO)CC1c1ccccc1 (configuration not stated)
inactive: [1] 41.8 µM | [2] 25.7 µM | [3] 28 µM | [4] 54.6 µM | [5] 37.5 µM | [6] 48.8 µM

O=C(N/C(=C\c1c(O)ccc2ccccc12)c1nc2ccccc2[nH]1)c1ccccc1
inactive: [1] > 100 µM | [2] > 100 µM | [3] > 100 µM | [4] > 100 µM | [5] > 100 µM | [6] > 100 µM | [7] > 100 µM

CCOC(=O)C1C(=O)CC(=O)C2CCCCC21 (configuration not stated)
inactive: [1] > 100 µM | [2] > 100 µM | [3] > 100 µM | [6] > 100 µM | [7] > 100 µM

COc1cc2c(cc1OC)C1(c3ccc(Cl)cc3)ON=C(c3ccccc3)N1CS2 (configuration not stated)
inactive: [1] > 100 µM | [2] > 100 µM | [3] > 100 µM | [4] > 100 µM | [5] > 100 µM | [6] > 100 µM

CCOc1ccc(OP2(=O)NC(=O)C=C(C)N2)cc1 (configuration not stated)
inactive: [1] > 100 µM | [2] > 100 µM | [3] > 100 µM | [4] > 100 µM | [5] > 100 µM | [6] > 100 µM | [7] > 100 µM

C[C@@]1(CBr)C[C@@](C)(/C=C/Cl)[C@@H](Cl)C[C@H]1Cl
inactive: [1] 13.6 µM | [2] 12.7 µM | [3] 10.8 µM | [4] 11.6 µM | [5] 13.1 µM | [6] 11.9 µM | [7] 11.7 µM

O=[N+]([O-])c1cc(/C=N\NS(=O)(=O)c2ccc(Cl)cc2)c(O)c([N+](=O)[O-])c1
inactive: [1] 72.8 µM | [2] 31.9 µM | [3] 26.5 µM | [4] 28.3 µM | [5] 48.3 µM | [6] 28.6 µM

CN(C(=O)C12C3C4C1C1C2C3C41C#N)C(C)(C)C (configuration not stated)
inactive: [1] > 100 µM | [2] > 100 µM | [3] > 100 µM | [4] > 100 µM | [5] > 100 µM | [6] > 100 µM

Cc1nnc(N/N=C2\C(=O)Nc3ccccc32)n1N
inactive: [1] > 100 µM | [2] > 100 µM | [3] > 100 µM | [4] > 100 µM | [5] > 100 µM | [6] > 100 µM | [7] > 100 µM

O=C(C[n+]1ccccc1)NNC(=O)/C(=C/c1ccc2c(c1)OCO2)NC(=O)c1ccccc1
inactive: [1] 38.2 µM | [2] 25.5 µM | [3] 28.3 µM | [4] > 73.3 µM | [5] 41.7 µM | [7] > 41.2 µM

O=C1CCC2(c3ccccc3)Nc3cc(Cl)ccc3N12 (configuration not stated)
inactive: [1] 34.9 µM | [2] 21.4 µM | [4] 30 µM | [5] 30.8 µM | [6] 47.5 µM | [7] 19.7 µM

COc1ccc(/C=C2\CNC/C(=C\c3ccc(OC)cc3)C2=O)cc1
inactive: [1] 21 µM | [2] 45.8 µM | [3] 23.2 µM | [4] 24.3 µM | [5] > 100 µM | [7] 63.2 µM

ON/N=C/c1cc2c(cc1Br)OCO2
inactive: [1] > 386 µM | [2] 251 µM | [3] > 386 µM | [4] > 386 µM | [5] > 386 µM | [6] > 386 µM

COC(=O)N/N=c1\cc(C(=O)Nc2ccc(C)c(C)c2)oc2cc(O)ccc12
inactive: [1] > 100 µM | [2] > 100 µM | [3] > 100 µM | [4] > 100 µM | [5] > 100 µM | [6] > 100 µM | [7] > 100 µM

N/C(=N\O)N/N=C/c1cccs1
inactive: [1] 59.6 µM | [2] 54.8 µM | [3] > 100 µM | [5] > 100 µM | [6] > 100 µM | [7] 98.9 µM
